Experimental data as given in PMC8179567, “Target-templated de novo design of macrocyclic D-/L-peptides: discovery of drug-like inhibitors of PD-1” (Chemical Science, 2021).
Square brackets hold non-standard residues; d marks the D form. Peptide text beside a SMILES is read from it.

Legend:
[1] = molecular target: T1, extracellular domain of human PD-1 (Homo sapiens, UniProt Q15116, C93S); experiment: Surface plasmon resonance (SPR), PD-1 immobilised on CM5 chip; type: binding; details: analytes injected at 10, 100 and 1000 µM in PBS, 25 °C, PBS-T pH 7.4, reference channel subtracted; KD not calculable (fast kinetics, no saturation)
T1 construct: ectodomain of human PD-1 (aa 33- 150) was cloned into pET-24d; made in house
T1 sequence (Q15116 33-150 C93S limits assumed): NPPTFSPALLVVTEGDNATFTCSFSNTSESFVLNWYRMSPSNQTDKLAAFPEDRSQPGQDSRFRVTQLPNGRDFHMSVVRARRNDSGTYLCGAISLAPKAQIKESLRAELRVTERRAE
Description: Seven de novo designed cyclic peptides were in total selected for experimental characterization (PD-i1-7). To this end, peptide chains were elongated on a Wang-linker modified polystyrene resin (anchoring through the Asp side-chain carboxylic acid). This chemical strategy enabled the head-to-tail cyclisation to be readily performed on-resin, and a final deprotection/cleavage step yielded the already cyclized final peptide (Scheme S1 ^†). To test for their bioactivity, the extracellular domain of human PD-1 was recombinantly expressed in E. coli and refolded from inclusion bodies. The purified protein was then immobilized by free amine coupling on a CM5 sensor chip surface, and surface plasmon resonance (SPR) measurements were performed. […] In particular, we selected microscale thermophoresis (MST) as it has been validated with this system[30] and allows the quantification of interactions in solution, which mimics physiological conditions. To this end, PD-1 was first fluorescently labelled and then titrated with increasing amounts of PD-i3 and PD-i6. […] Mutation of L-Trp, which serves as PD-1 anchor for the in silico design process, largely abolished binding to the target (Fig. S9A ^†). […]

[2] = molecular target: T2, 15N-labelled PD-1 extracellular domain (Homo sapiens, UniProt Q15116, C93S); experiment: 1H,15N HSQC NMR mapping of interaction site; type: binding; details: 15N-PD-1 60 µM, peptide 1 mM, 25 °C, pH 6.4; I/Io > 20% considered significant; residues adjacent to the CC′ loop
T2 construct: ectodomain of human PD-1 (aa 33- 150) was cloned into pET-24d; made in house
T2 sequence (Q15116 33-150 C93S limits assumed): as above
Method: To further elucidate the interaction site of PD-i3 and PD-i6, we expressed the extracellular domain of PD-1 uniformly labelled in ^15N and performed high-resolution NMR spectroscopy assays.
Microscale thermophoresis (MST)
MST was used to calculate the binding affinities in solution of PD-i3 and PD-i 6 for the extracellular domain of human PD-1. To this end, PD-1 was fluorescently labelled by reaction of the Lys side chains with Alexa-647-NHS (6 eq) for 3 h at 4 °C. The labelled protein was purified by size-exclusion chromatography and was diluted in PBS-T buffer (0.05% Tween 20, pH 7.4) to a final concentration of 10 nM. […]
#BE0193) as positive controls (Figure S). […] A reproducible and negative thermophoresis response was observed, which was baseline-corrected and normalized (ΔFnorm [‰]).The curves were analyzed using a standard Langmuir binding model, from which dissociations constants (K D) were determined. […]
ITC experiments were performed at 25 °C using a low-volume nano ITC calorimeter (TA instruments). […] Binding isotherms were analysed using the software provided by TA instruments, assuming a single binding site for the independent domains. […]
1H,15N HSQC spectra were recorded at 25 °C on a Bruker 600 MHz spectrometer equipped with a cryoprobe. […]
To assess the solution structures of PD-i3 and PD-i6, NMR spectra were recorded at 5 °C on a Bruker B800 MHz spectrometer equipped with a cryoprobe. […]

Compound | SPR response on PD-1-functionalised channel [1] | Changes in PD-1 HSQC signal intensity on peptide addition [2]
CSCC[C@@H]1NC(=O)[C@H]([C@@H](C)O)NC(=O)[C@H](CC(=O)O)NC(=O)[C@H]2CCCN2C(=O)[C@H](Cc2ccc(O)cc2)NC(=O)[C@H](CCCNC(=N)N)NC(=O)[C@@H](CCCNC(=N)N)NC(=O)[C@@H](CCC(=O)O)NC(=O)[C@H](CC(C)C)NC(=O)[C@H](Cc2ccc(O)cc2)NC1=O [PD-i3] (cyclo(DTMYL[dE][dR]RY[dP])) | distinct concentration-dependent SPR responses | significant changes in signal intensity
CC(C)[C@@H]1NC(=O)[C@@H](Cc2c[nH]c3ccccc23)NC(=O)[C@H](Cc2c[nH]c3ccccc23)NC(=O)[C@H](CC(=O)O)NC(=O)[C@@H](CCCCN)NC(=O)[C@H](C)NC(=O)[C@H](CCC(=O)O)NC(=O)[C@H]2CCCN2C1=O [PD-i6] (cyclo(A[dK]DW[dW]V[dP]E)) | distinct concentration-dependent SPR responses | significant changes in signal intensity
